{"source": "patent US9481636B2", "about": "“N-benzylaniline derivative and uses thereof” (Nanjing Medical University, priority 2011, dated 2016)", "origin": "cited, not measured here", "key": {"[1]": {"test_system": "complete Freund's adjuvant (CFA)-induced muscle hyperalgesia", "details": "intramuscular injection; dose-dependent; Neuroreport, 2005, 16, 485; cited from earlier work"}, "[2]": {"test_system": "capsaicin-induced mechanical and thermal hyperalgesia", "details": "intrathecal injection, Neuropharmacology, 2005, 48, 325; cited from earlier work"}, "[3]": {"test_system": "mechanical hyperalgesia and thermal hyperalgesia", "details": "pain models in rodents; Brit. J. Pharmacol., 2009, 158, 494-506; cited from earlier work"}}, "data": [{"smiles": "NC(CCCP(=O)(O)O)C(=O)O", "note": "(stereo not drawn) [AP-5]", "values": [{"measurement": "CFA-induced muscle hyperalgesia", "setting": "[1]", "value": "reduce"}]}, {"smiles": "C[C@]12N[C@H](Cc3ccccc31)c1ccccc12", "note": "[MK-801]", "values": [{"measurement": "mechanical allodynia and thermal hyperalgesia", "setting": "[2]", "value": "significantly alleviate"}]}, {"smiles": "Oc1c(Cl)cc(Cl)cc1CNc1ccc2[nH]nnc2c1", "note": "[IC87201, 2-[(1H-benzotriazole-5-amino)methyl]-4,6-dichlorophenol]", "values": [{"measurement": "mechanical hyperalgesia and thermal hyperalgesia", "setting": "[3]", "value": "significant inhibitory effects"}]}]}
